For seven compounds, solubility results are on record in patent US20230143604A1, “QW DOSING OF GIP RECEPTOR AGONIST PEPTIDE COMPOUNDS AND USES THEREOF” (TAKEDA PHARMACEUTICAL COMPANY LIMITED, priority 2020, published 2023).

The solubility is the dissolved amount per volume that the medium holds. A high value points to a readily soluble substance.

The structures appear in SMILES notation. Starred links: 1 amine or outer side, 2 acyl side, 3 side chain; linkers in the order of their positions; H or OH if unused. Non-standard residues stand in square brackets, D forms with d. Residues, ends and D or L forms follow the SMILES beside them. Groups on a side chain read outwards from the residue. *: point of attachment. C18 diacid = O=C(O)CCCCCCCCCCCCCCCCC(=O)*; C17 diacid = O=C(O)CCCCCCCCCCCCCCCC(=O)*; γGlu = O=C(O)[C@H](CCC(=O)[*:2])N[*:1]; NMeY = CN[C@@H](Cc1ccc(O)cc1)C(=O)O; AEEA = NCCOCCOCC(=O)O; Aib = CC(C)(N)C(=O)O

The data set can be described thus: Solubility in phosphate buffer pH 7.4. In outline: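 3 mg of peptide treated with 100 μL portions of 200 mM phosphate buffer pH 7.4, sonicating/vortexing up to 1 min, with further buffer added until fully dissolved. Solubility then quantified by HPLC.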
Where [1] appears, read: pH 7.4, aqueous buffer, pH 7.4 Phosphate Buffer - Solubility, 200 mM Phosphate buffer pH 7.4.
Where [2] appears, read: pH 7.4, solubility in phosphate buffer at pH 7.4, 200 mM phosphate buffer pH 7.4.

As to `CC[C@H](C)[C@H](NC(=O)[C@H](Cc1ccccc1)NC(=O)[C@@H](NC(=O)CNC(=O)[C@H](CCC(=O)O)NC(=O)C(C)(C)NC(=O)[C@H](Cc1ccc(O)cc1)NC)[C@@H](C)O)C(=O)N[C@@H](CO)C(=O)N[C@@H](CC(=O)O)C(=O)N[C@@H](Cc1ccc(O)cc1)C(=O)N[C@@H](CO)C(=O)N[C@H](C(=O)NC(C)(C)C(=O)N[C@@H](CCCCNC(=O)COCCOCCNC(=O)COCCOCCNC(=O)CC[C@H](NC(=O)CC[C@H](NC(=O)CCCCCCCCCCCCCCCCC(=O)O)C(=O)O)C(=O)O)C(=O)N[C@@H](CC(=O)O)C(=O)N[C@@H](CCCNC(=N)N)C(=O)NC(C)(C)C(=O)N[C@@H](C)C(=O)N[C@@H](CCC(N)=O)C(=O)NC(C)(C)C(=O)N[C@@H](CC(N)=O)C(=O)N[C@@H](Cc1ccccc1)C(=O)N[C@H](C(=O)N[C@@H](CC(N)=O)C(=O)N[C@@H](Cc1c[nH]c2ccccc12)C(=O)N[C@@H](CC(C)C)C(=O)N[C@@H](CC(C)C)C(=O)N[C@@H](C)C(=O)N[C@@H](CCC(N)=O)C(=O)N[C@@H](CCCNC(=N)N)C(=O)N1CCC[C@H]1C(=O)N[C@@H](CO)C(=O)N[C@@H](CO)C(=O)NCC(=O)N[C@@H](C)C(=O)N1CCC[C@H]1C(=O)N1CCC[C@H]1C(=O)N1CCC[C@H]1C(=O)N[C@@H](CO)C(N)=O)C(C)C)[C@@H](C)CC` [Compound 28] (H-[NMeY][Aib]EGTFISDYSI[Aib]K([AEEA-AEEA-γGlu-γGlu-C18 diacid])DR[Aib]AQ[Aib]NFVNWLLAQRPSSGAPPPS-NH2), the solubility is, setting by setting: under setting [1], at least 30 mg/mL; under setting [2], at least 15 mg/mL.
For `CC[C@H](C)[C@H](NC(=O)[C@H](Cc1ccccc1)NC(=O)[C@@H](NC(=O)CNC(=O)[C@H](CCC(=O)O)NC(=O)C(C)(C)NC(=O)[C@H](Cc1ccc(O)cc1)NC)[C@@H](C)O)C(=O)N[C@@H](CO)C(=O)N[C@@H](CC(=O)O)C(=O)N[C@@H](Cc1ccc(O)cc1)C(=O)N[C@@H](CO)C(=O)N[C@H](C(=O)NC(C)(C)C(=O)N[C@@H](CCCCNC(=O)COCCOCCNC(=O)COCCOCCNC(=O)CC[C@H](NC(=O)CC[C@H](NC(=O)CCCCCCCCCCCCCCCC(=O)O)C(=O)O)C(=O)O)C(=O)N[C@@H](CC(=O)O)C(=O)N[C@@H](CCCNC(=N)N)C(=O)NC(C)(C)C(=O)N[C@@H](C)C(=O)N[C@@H](CCC(N)=O)C(=O)NC(C)(C)C(=O)N[C@@H](CC(N)=O)C(=O)N[C@@H](Cc1ccccc1)C(=O)N[C@H](C(=O)N[C@@H](CC(N)=O)C(=O)N[C@@H](Cc1c[nH]c2ccccc12)C(=O)N[C@@H](CC(C)C)C(=O)N[C@@H](CC(C)C)C(=O)N[C@@H](C)C(=O)N[C@@H](CCC(N)=O)C(=O)N[C@@H](CO)C(=O)N1CCC[C@H]1C(=O)N[C@@H](CO)C(=O)N[C@@H](CO)C(=O)NCC(=O)N[C@@H](C)C(=O)N1CCC[C@H]1C(=O)N1CCC[C@H]1C(=O)N1CCC[C@H]1C(=O)N[C@@H](CO)C(N)=O)C(C)C)[C@@H](C)CC` [Compound 29] (H-[NMeY][Aib]EGTFISDYSI[Aib]K([AEEA-AEEA-γGlu-γGlu-C17 diacid])DR[Aib]AQ[Aib]NFVNWLLAQSPSSGAPPPS-NH2), the solubility was at least 30 mg/mL under setting [1] and at least 15 mg/mL under setting [2].
For the compound `CC[C@H](C)[C@H](NC(=O)[C@H](CO)NC(=O)[C@H](Cc1ccc(O)cc1)NC(=O)[C@H](CC(=O)O)NC(=O)[C@H](CO)NC(=O)[C@@H](NC(=O)[C@H](Cc1ccccc1)NC(=O)[C@@H](NC(=O)CNC(=O)[C@H](CCC(=O)O)NC(=O)C(C)(C)NC(=O)[C@H](Cc1ccc(O)cc1)NC)[C@@H](C)O)[C@@H](C)CC)C(=O)N[C@@H](C)C(=O)N[C@@H](CC(C)C)C(=O)N[C@@H](CC(=O)O)C(=O)N[C@@H](CCCNC(=N)N)C(=O)NC(C)(C)C(=O)N[C@@H](C)C(=O)N[C@@H](CCC(N)=O)C(=O)NC(C)(C)C(=O)N[C@@H](CCCCNC(=O)COCCOCCNC(=O)COCCOCCNC(=O)CC[C@H](NC(=O)CC[C@H](NC(=O)CCCCCCCCCCCCCCCC(=O)O)C(=O)O)C(=O)O)C(=O)N[C@@H](Cc1ccccc1)C(=O)N[C@H](C(=O)N[C@@H](CC(N)=O)C(=O)N[C@@H](Cc1c[nH]c2ccccc12)C(=O)N[C@@H](CC(C)C)C(=O)N[C@@H](CC(C)C)C(=O)N[C@@H](C)C(=O)N[C@@H](CCC(N)=O)C(=O)N[C@@H](CCCNC(=N)N)C(=O)NCC(=O)NCC(=O)NCC(=O)NCC(=O)N[C@@H](CO)C(N)=O)C(C)C` [Compound 30] (H-[NMeY][Aib]EGTFISDYSIALDR[Aib]AQ[Aib]K([AEEA-AEEA-γGlu-γGlu-C17 diacid])FVNWLLAQRGGGGS-NH2), the solubility by setting is: (pH 7.4) at least 15 mg/mL; (pH 7.4, aqueous buffer) at least 30 mg/mL.
On the same counts, the results for `CC[C@H](C)[C@H](NC(=O)[C@H](CO)NC(=O)[C@H](Cc1ccc(O)cc1)NC(=O)[C@H](CC(=O)O)NC(=O)[C@H](CO)NC(=O)[C@@H](NC(=O)[C@H](Cc1ccccc1)NC(=O)[C@@H](NC(=O)CNC(=O)[C@H](CCC(=O)O)NC(=O)C(C)(C)NC(=O)[C@H](Cc1ccc(O)cc1)NC)[C@@H](C)O)[C@@H](C)CC)C(=O)N[C@@H](C)C(=O)N[C@@H](CC(C)C)C(=O)N[C@@H](CC(=O)O)C(=O)N[C@@H](CCCNC(=N)N)C(=O)NC(C)(C)C(=O)N[C@@H](CCCCNC(=O)COCCOCCNC(=O)COCCOCCNC(=O)CC[C@H](NC(=O)CC[C@H](NC(=O)CCCCCCCCCCCCCCCC(=O)O)C(=O)O)C(=O)O)C(=O)N[C@@H](CCC(N)=O)C(=O)NC(C)(C)C(=O)N[C@@H](CC(N)=O)C(=O)N[C@@H](Cc1ccccc1)C(=O)N[C@H](C(=O)N[C@@H](CC(N)=O)C(=O)N[C@@H](Cc1c[nH]c2ccccc12)C(=O)N[C@@H](CC(C)C)C(=O)N[C@@H](CC(C)C)C(=O)N[C@@H](C)C(=O)N[C@@H](CCC(N)=O)C(=O)N[C@@H](CO)C(=O)NCC(=O)NCC(=O)NCC(=O)NCC(=O)N[C@@H](CO)C(N)=O)C(C)C` [Compound 31] (H-[NMeY][Aib]EGTFISDYSIALDR[Aib]K([AEEA-AEEA-γGlu-γGlu-C17 diacid])Q[Aib]NFVNWLLAQSGGGGS-NH2) are at least 15 mg/mL and at least 30 mg/mL.
The like results for `CC[C@H](C)[C@H](NC(=O)[C@H](Cc1ccccc1)NC(=O)[C@@H](NC(=O)CNC(=O)[C@H](CCC(=O)O)NC(=O)C(C)(C)NC(=O)[C@H](Cc1ccc(O)cc1)NC)[C@@H](C)O)C(=O)N[C@@H](CO)C(=O)N[C@@H](CC(=O)O)C(=O)N[C@@H](Cc1ccc(O)cc1)C(=O)N[C@@H](CO)C(=O)N[C@H](C(=O)NC(C)(C)C(=O)N[C@@H](CCCCNC(=O)COCCOCCNC(=O)COCCOCCNC(=O)CC[C@H](NC(=O)CC[C@H](NC(=O)CCCCCCCCCCCCCCCC(=O)O)C(=O)O)C(=O)O)C(=O)N[C@@H](CC(=O)O)C(=O)N[C@@H](CCCNC(=N)N)C(=O)NC(C)(C)C(=O)N[C@@H](C)C(=O)N[C@@H](CCC(N)=O)C(=O)NC(C)(C)C(=O)N[C@@H](CC(N)=O)C(=O)N[C@@H](Cc1ccccc1)C(=O)N[C@H](C(=O)N[C@@H](CC(N)=O)C(=O)N[C@@H](Cc1c[nH]c2ccccc12)C(=O)N[C@@H](CC(C)C)C(=O)N[C@@H](CC(C)C)C(=O)N[C@@H](C)C(=O)N[C@@H](CCC(N)=O)C(=O)N[C@@H](CCCNC(=N)N)C(=O)NCC(=O)NCC(=O)NCC(=O)NCC(=O)N[C@@H](CO)C(N)=O)C(C)C)[C@@H](C)CC` [Compound 32] (H-[NMeY][Aib]EGTFISDYSI[Aib]K([AEEA-AEEA-γGlu-γGlu-C17 diacid])DR[Aib]AQ[Aib]NFVNWLLAQRGGGGS-NH2) were, in that order, at least 15 mg/mL and at least 30 mg/mL.
The like results for `CC[C@H](C)[C@H](NC(=O)[C@H](Cc1ccccc1)NC(=O)[C@@H](NC(=O)CNC(=O)[C@H](CCC(=O)O)NC(=O)C(C)(C)NC(=O)[C@H](Cc1ccc(O)cc1)NC)[C@@H](C)O)C(=O)N[C@@H](CO)C(=O)N[C@@H](CC(=O)O)C(=O)N[C@@H](Cc1ccc(O)cc1)C(=O)N[C@@H](CO)C(=O)N[C@H](C(=O)NC(C)(C)C(=O)N[C@@H](CC(C)C)C(=O)N[C@@H](CC(=O)O)C(=O)N[C@@H](CCCNC(=N)N)C(=O)NC(C)(C)C(=O)N[C@@H](C)C(=O)N[C@@H](CCC(N)=O)C(=O)NC(C)(C)C(=O)N[C@@H](CC(N)=O)C(=O)N[C@@H](Cc1ccccc1)C(=O)N[C@H](C(=O)N[C@@H](CC(N)=O)C(=O)N[C@@H](Cc1c[nH]c2ccccc12)C(=O)N[C@@H](CC(C)C)C(=O)N[C@@H](CC(C)C)C(=O)N[C@@H](C)C(=O)N[C@@H](CCC(N)=O)C(=O)N[C@@H](CCCCNC(=O)COCCOCCNC(=O)COCCOCCNC(=O)CC[C@H](NC(=O)CC[C@H](NC(=O)CCCCCCCCCCCCCCCC(=O)O)C(=O)O)C(=O)O)C(=O)NCC(=O)NCC(=O)NCC(=O)NCC(=O)N[C@@H](CO)C(N)=O)C(C)C)[C@@H](C)CC` [Compound 33] (H-[NMeY][Aib]EGTFISDYSI[Aib]LDR[Aib]AQ[Aib]NFVNWLLAQK([AEEA-AEEA-γGlu-γGlu-C17 diacid])GGGGS-NH2) were, in that order, at least 15 mg/mL and at least 30 mg/mL.
Consider `CC[C@H](C)[C@H](NC(=O)[C@H](CO)NC(=O)[C@H](Cc1ccc(O)cc1)NC(=O)[C@H](CC(=O)O)NC(=O)[C@H](CO)NC(=O)[C@@H](NC(=O)[C@H](Cc1ccccc1)NC(=O)[C@@H](NC(=O)CNC(=O)[C@H](CCC(=O)O)NC(=O)C(C)(C)NC(=O)[C@H](Cc1ccc(O)cc1)NC)[C@@H](C)O)[C@@H](C)CC)C(=O)N[C@@H](C)C(=O)N[C@@H](CCCCNC(=O)CNC(=O)CNC(=O)CNC(=O)CNC(=O)CNC(=O)CC[C@H](NC(=O)CC[C@H](NC(=O)CCCCCCCCCCCCCCCCC(=O)O)C(=O)O)C(=O)O)C(=O)N[C@@H](CC(=O)O)C(=O)N[C@@H](CCCNC(=N)N)C(=O)NC(C)(C)C(=O)N[C@@H](C)C(=O)N[C@@H](CCC(N)=O)C(=O)NC(C)(C)C(=O)N[C@@H](CC(N)=O)C(=O)N[C@@H](Cc1ccccc1)C(=O)N[C@H](C(=O)N[C@@H](CC(N)=O)C(=O)N[C@@H](Cc1c[nH]c2ccccc12)C(=O)N[C@@H](CC(C)C)C(=O)N[C@@H](CC(C)C)C(=O)N[C@@H](C)C(=O)N[C@@H](CCC(N)=O)C(=O)N[C@@H](CCCNC(=N)N)C(=O)N1CCC[C@H]1C(=O)N[C@@H](CO)C(=O)N[C@@H](CO)C(=O)NCC(=O)N[C@@H](C)C(=O)N1CCC[C@H]1C(=O)N1CCC[C@H]1C(=O)N1CCC[C@H]1C(=O)N[C@@H](CO)C(N)=O)C(C)C` [Compound 34], for which the solubility is, setting by setting: under setting [1], at least 30 mg/mL; under setting [2], at least 15 mg/mL.
